Legend:
rat squalene synthetase = target: T1, rat squalene synthetase (Rattus norvegicus, UniProt Q02769); assay: Rat squalene synthetase inhibitory activity (rat liver microsomal fraction, [3H]farnesyl-pyrophosphate); assay type: biochemical; conditions: rat liver microsomal fraction 30 μg/mL, 5 μM [3H]farnesyl-pyrophosphate, 37° C., 20 minutes; read-out: IC50 (squalene synthetase inhibitory activity: concentration inhibiting 50% of radioactivity incorporated into squalene)
T1 construct: the final sediment thus obtained was used as a microsomal fraction for the measurement of enzymatic activity; from tissue; host or cells: liver of eight-week-old SD male rats, washed 105,000 x g microsomal fraction
T1 sequence (Q02769 1-416): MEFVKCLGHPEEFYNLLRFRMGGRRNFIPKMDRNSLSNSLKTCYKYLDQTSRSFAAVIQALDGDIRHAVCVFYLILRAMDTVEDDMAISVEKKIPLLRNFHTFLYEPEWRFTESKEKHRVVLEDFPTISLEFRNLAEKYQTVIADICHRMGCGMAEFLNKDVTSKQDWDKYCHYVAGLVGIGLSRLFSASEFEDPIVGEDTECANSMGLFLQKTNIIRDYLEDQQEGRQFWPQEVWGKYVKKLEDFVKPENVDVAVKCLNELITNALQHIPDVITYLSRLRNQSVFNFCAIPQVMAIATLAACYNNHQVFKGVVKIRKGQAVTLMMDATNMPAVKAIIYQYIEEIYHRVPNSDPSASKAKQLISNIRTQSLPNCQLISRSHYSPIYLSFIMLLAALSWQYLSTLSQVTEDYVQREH
Description: 1. Rat Squalene Synthetase Inhibitory Activity
(1) Preparation of Enzyme Source
As an enzyme source, a microsomal fraction prepared from a rat liver was employed. First, eight-week-old SD male rats were subjected to laparotomy under anesthesia with pentobarbital sodium. […] To the liver thus obtained were added 0.3M sucrose, 1 mM dithiothreitol (DTT), 1 mM sodium ethylenediamine tetraacetate (EDTA) and various protease inhibitors. The resulting mixture was homogenized in the presence of a 10 mM phosphate buffer adjusted to pH 7.4 and centrifuged for 5 minutes at 2,000×g and for 15 minutes at 10,000×g. As the protease inhibitor, phenylmethanesulfonyl fluoride (PMSF), leupeptin and aprotinin were added to give the final concentrations of 1 mM, 10 μM, and 5 μg/mL, respectively. The supernatant after centrifugation was centrifuged further at 105,000×g for 60 minutes. The sediment thus obtained was suspended in a 10 mM phosphate buffer (pH 7.4) containing 1 mM DTT, 1 mM EDTA, and the above-described protease inhibitors and the resulting suspension was centrifuged at 105,000×g for 30 minutes, which operation was performed twice. After washing, the final sediment thus obtained was used as a microsomal fraction for the measurement of enzymatic activity.
(2) Measurement of Squalene Synthetase Inhibitory Activity
Squalene synthetase activity was measured in accordance with the method of Schechter, et al., described in Journal of Biological Chemistry, 267, 8628-8635 (1992). Described specifically, the compound of the present invention dissolved in water or dimethylsulfoxide (DMSO) was added to an enzyme reaction mixture (total amount: 50 μl) containing 5 mM reduced nicotinamide adenine dinucleotide phosphate (NADPH), 5 mM 3-[(3-cholamidopropyl)dimethylammonio]propanesulfonic acid (CHAPS), 10 mM potassium fluoride, 10 mM magnesium chloride, 10 mM DTT, 1 μM/mL NB-598 (squalene epoxydase inhibitor, Journal of Biological Chemistry, 265, 18075-180788 (1990)), 50 mM HEPES buffer (pH 7.4)), 30 μg/mL of the rat liver microsomal fraction, and 5 μM [^3H] farnesyl-pyrophosphate and the resulting mixture was reacted at 37° C. for 20 minutes (enzyme reaction was started by adding [^3H]farnesyl-pyrophosphate to the enzyme reaction mixture which had been incubated in advance at 37° C. for 10 minutes). To the enzyme reaction mixture was added 5 μl of 1M EDTA (pH 9.2) to terminate the enzyme reaction, followed by the addition of 5 μl of a 0.5% squalene ethanol solution. After spotting of a 40 μl portion of the resulting mixture on a plastic sheet for thin layer chromatography, development with 5% toluene-95% hexane and drying, these pots were visualized by exposure to iodine vapor and the band of squalene was identified. The spots were cut out with scissors and put in a vial container. To the container was added 10 mL of Aquasol-2 (product of New England Nuclear Research Products, USA) and radioactivity was measured by a liquid scintillation counter. The squalene synthetase inhibitory activity was expressed as a concentration (IC50) of the compound inhibiting 50% of radioactivity incorporated into squalene.

[1] = test system: liver-cholesterol synthesis; assay: Rat single-dose liver-cholesterol synthesis inhibitory effect; assay type: in vivo; conditions: Wistar male rats, 3 mg/kg orally, 14C-mevalonic acid i.p. one hour later, liver taken one hour after that, relative to control group
Description: 2. Rat Single-Dose Liver-Cholesterol Synthesis Inhibitory Effect
A rat single-dose liver-cholesterol synthesis inhibitory effect was measured as described below.
To each the compounds of the present invention was added a necessary amount of a 0.5% methyl cellulose solution immediately before use. Then, an equivalent molar amount of sodium hydroxide or sodium hydrogen carbonate was added to dissolve or suspend it in the resulting solution. To 6-week-old Wistar male rats were orally administered each of the compounds of the present invention (3 mg/kg), while only a 0.5% methyl cellulose solution was administered to a control group. One hour later, physiological saline of mevalonic acid (5 μCi/5 mL/kg) labeled with a radioisotope ^14C was intraperitoneally administered. The rats were sacrificed one hour later. To 1 g of the liver thus obtained from the rats was added 5 mL of a 15% KOH ethanol solution and the resulting mixture was left to stand for 15 hours. After heating at 75° C. for 2 hours, the reaction mixture was extracted with 5 mL of water and 10 mL of petroleum ether. The petroleum ether layer was collected, evaporated to dryness and then dissolved in 50 μl of a chloroform:acetone=2:1 solution. The cholesterol band was separated by silica gel thin layer chromatography (Art.5748, toluene:ethyl acetate=3:1) and cut out. It was put in a vial container, followed by the addition of 10 mL of Aquasol-2 (product of Packard BioScience Company). The radioactivity was measured using a liquid scintillation counter. A ratio of the radioactivity relative to that of a control group was determined and liver-cholesterol synthesis inhibitory activity (%) was calculated.

Row | IC50 (rat squalene synthetase) [nM] | SMILES | Liver-cholesterol synthesis inhibitory effect [1] [%]
1 | 4.6 | COc1cccc([C@H]2O[C@H](Cc3ncc(CCC(=O)O)s3)c3nnc(C(F)(F)F)n3-c3ccc(Cl)cc32)c1OC (relative stereo) [Example 322, 3-({2-[(trans)-8-Chloro-6-(2,3-dimethoxyphenyl)-1-(trifluoromethyl)-4H,6H-[1,2,4]triazolo[4,3-a][4,1]benzoxazepin-4-yl]methyl}-1,3-thiazol-5-yl)propanoic Acid] | 76
2 | 4.9 | COC(=O)CCc1cnc(C[C@H]2S[C@H](c3cccc(OC)c3OC)c3cc(Cl)ccc3-n3c2nnc3C(F)(F)F)s1 (relative stereo) [Example 330, Methyl 3-({2-[(trans)-8-chloro-6-(2,3-dimethoxyphenyl)-1-(trifluoromethyl)-4H,6H-[1,2,4]triazolo[4,3-a][4,1]benzothiazepin-4-yl]methyl}-1,3-thiazol-5-yl)propanoate] | 75
3 | 4.6 | COc1cccc(C2SC(CC(=O)O)c3nnc(C(F)(F)F)n3-c3ccc(Cl)cc32)c1OC (stereo not drawn) [Example 341, 2-[8-Chloro-6-(2,3-dimethoxyphenyl)-1-(trifluoromethyl)-4H,6H-[1,2,4]triazolo[4,3-a][4,1]benzothiazepin-4-yl]acetic Acid] | 90

Continued, compound first:

Row | SMILES | IC50 (rat squalene synthetase) [nM] | Liver-cholesterol synthesis inhibitory effect [1] [%]
4 | COc1cccc(C2SC(CC(=O)N3CCC(CC(=O)O)CC3)c3nnc(C(F)(F)F)n3-c3ccc(Cl)cc32)c1OC (single isomer, unassigned) [Example 343, 2-(1-{2-[8-Chloro-6-(2,3-dimethoxyphenyl)-1-(trifluoromethyl)-4H,6H-[1,2,4]triazolo[4,3-a][4,1]benzothiazepin-4-yl]acetyl}-4-piperidinyl)acetic Acid] | 7.6 | 80
5 | COc1cccc([C@H]2O[C@H](CCn3nnc(CC(=O)O)n3)c3cccn3-c3c(F)cc(Cl)cc32)c1OC [Example 21, 2-(2-{2-[(4R,6S)-8-Chloro-6-(2,3-dimethoxyphenyl)-10-fluoro-4H,6H-pyrrolo[1,2-a][4,1]benzoxazepin-4-yl]ethyl}-2H-1,2,3,4-tetrazol-5-yl)acetic Acid] |  | 68
6 | O=C(O)CC1CCN(C(=O)CC2OC(c3cccc4ccccc34)c3cc(Cl)ccc3-n3cccc32)CC1 (stereo not drawn) [Example 210, 2-(1-{2-[8-Chloro-6-(1-naphthyl)-4H,6H-pyrrolo[1,2-a][4,1]benzoxazepin-4-yl]acetyl}-4-piperidinyl)acetic Acid] | 0.56 | 
7 | COc1cccc([C@H]2O[C@H](CCn3cc(C(=O)O)cn3)c3nccn3-c3ccc(Cl)cc32)c1OC [Example 263, 1-{2-[(4R,6S)-8-Chloro-6-(2,3-dimethoxyphenyl)-4H,6H-imidazo[1,2-a][4,1]benzoxazepin-4-yl]ethyl}-1H-pyrazole-4-carboxylic Acid] | 3.9 | 84
